Earlier results, collected in US8349312B2, “Proline substituted cyclosporin analogues” (Enanta Pharmaceuticals, Inc., priority 2009, dated 2013).

Tests used:
hepatitis C virus = details: Paeshuyse et al., Antiviral Research 65(3):A41 (2005)
cyclophilin A = cyclophilin A (Homo sapiens, UniProt P62937)
Sequence of cyclophilin A (P62937 whole entry, species assumed): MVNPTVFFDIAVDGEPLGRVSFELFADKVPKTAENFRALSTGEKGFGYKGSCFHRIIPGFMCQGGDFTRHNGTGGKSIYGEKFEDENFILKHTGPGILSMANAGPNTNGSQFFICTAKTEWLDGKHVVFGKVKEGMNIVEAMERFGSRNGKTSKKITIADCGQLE

Question: For `C/C=C/C[C@@H](C)[C@@H](O)[C@H]1C(=O)N[C@@H](CC)C(=O)N(C)[C@H](C)C(=O)N(CC)[C@@H](C(C)C)C(=O)N[C@@H](C(C)C)C(=O)N(C)[C@@H](CC(C)C)C(=O)N[C@@H](C)C(=O)N[C@H](C)C(=O)N(C)[C@@H](CC(C)C)C(=O)N(C)[C@@H](CC(C)C)C(=O)N(C)[C@@H](C(C)C)C(=O)N1C` [DEBIO-025], which “inhibition of hepatitis C virus replication” value (hepatitis C virus) is on record?
Answer: potent and selective inhibition

Question: What about the “binding affinity for cyclophilin A” value (cyclophilin A) of the same molecule?
Answer: potent binding affinity
